Test results from EP0099438A1, “2-Functionalised diaryl as-triazines useful in therapy” (PIERRE FABRE S.A., priority 1982, dated 1984).

How the values were obtained:
[1] = Acute oral toxicity in mice (LD50, method of Miller and Tainter); conditions: in vivo; mouse about 20 g, oral administration; read-out: DL50 voie orale
Description: L'étude de la toxicité a été effectuée chez la souris conventionnelle pesant environ 20 grammes.
Les substances ont été administrées par voie orale. Les doses létales 50 sont exprimées en mg/kg et ont été calculées selon la méthode de MILLER et TAINTER, Proc. Scc. Exper. Biol. Med. 1944, 57, 261.

[2] = Qualitative solubility in water and solvents; format: physicochemical; conditions: for Insoluble dans: media in which the compound is insoluble; for Soluble dans: media in which the compound is soluble
[3] = system: souris; assay: Phenylbenzoquinone (PBQ) writhing test (Siegmund), analgesic activity; format: in vivo; conditions: po, 0.5 h; mouse, per os 30 minutes before intraperitoneal PBQ injection; read-out: DE50 (the source's name)
Protocol: L'activité sur le test des contorsions à la phényl benzoquinone (PBQ) selon SIEGMUND et Coll., J. Pharm. Exptl. Ther. 1957, 119, 453, a été déterminée après administration du produit per os; la dose est exprimée en mg/kg chez la souris 30 minutes avant l'injection intra-péritonéale de l'agent algogène.
Les résultats sont exprimés en pourcentage de variation du nombre de contorsions. Pour les molécules les plus actives nous avons déterminé la DE50, les résultats sont répertoriés dans le tableau suivant : […]

[4] = system: P.R.P. de LAPIN; assay: In vitro platelet anti-aggregation, arachidonic acid-induced, in rabbit PRP; format: cell-based; conditions: dissolved in PEG 400, incubated 1 minute with PRP before arachidonic acid 2 x 10^-4M; ranking in words
Description: Les produits sont dissous dans le PEG 400, puis additionnés au P.R.P. de LAPIN puis incubés une minute avant l'addition d'agent agrégant (acide arachidonique 2 x 10^-4M). Le produit le plus actif est le ST 938.

In the case of COc1ccc(-c2nc(=O)n(CCN3CCOCC3)nc2-c2ccc(OC)cc2)cc1 [ST 728, Oxo-3 morpholino éthyl-2 di(paraméthoxyphényl)-5-6 as triazine], the LD50 [1] is reported as over 1000 mg/kg, the Insoluble dans [2] is reported as “l'eau, les bases diluées et l'éther” and the Soluble dans [2] is reported as “les acides, les alcools, le benzène, le chlorure de méthylène et le chloroforme”.

With COc1ccc(-c2nc(=O)n(C(C)CN(C)C)nc2-c2ccc(OC)cc2)cc1 (stereo not shown) [ST 766] the LD50 [1] was 750 mg/kg, the ED50 [3] was 11 mg/kg and the Insoluble dans [2] was “l'eau, les bases diluées, le benzène et l'éther”. For the same compound, the Soluble dans [2] was “les acides dilués, les alcools, le chlorure de méthylène et le chloroforme”.

For C=COCCn1nc(-c2ccc(OC)cc2)c(-c2ccc(OC)cc2)nc1=O [ST 777, Oxo-3 vinyloxyéthyl-2 di(paraméthoxyphényl)-5-6 as triazine], the LD50 [1] was over 1000 mg/kg, the ED50 [3] was 10 mg/kg and the Insoluble dans [2] was “l'eau, les bases et les acides dilués et l'éther”. For the same compound, the Soluble dans [2] was “les alcools, le benzène, le chlorure de méthylène et le chloroforme”.

In the case of COc1ccc(-c2nc(=O)n(CCO)nc2-c2ccc(OC)cc2)cc1 [ST 791, Oxo-3 hydroxyéthyl-2 di(paraméthoxyphényl)-5-6 as triazine], the LD50 [1] is reported as over 1000 mg/kg, the ED50 [3] is reported as 9 mg/kg and the Insoluble dans [2] is reported as “l'eau, les bases et les acides dilués et l'éther”. The Soluble dans [2] was “les alcools, le benzène, le chlorure de méthylène et le chloroforme”.

With CN(C)c1ccc(-c2nc(=O)n(CC(N)=O)nc2-c2ccc(N(C)C)cc2)cc1 [ST 812, Oxo-3 acétamido-2 di(paradiméthylaminophényl)-5-6 as triazine] the LD50 [1] was over 1000 mg/kg, the ED50 [3] was 12 mg/kg and the Insoluble dans [2] was “l'eau, les bases diluées, les alcools, le benzène et l'éther”. The Soluble dans [2] was “les acides dilués et le chlorure de méthylène”.

With CN(C)c1ccc(-c2nc(=O)n(CCO)nc2-c2ccc(N(C)C)cc2)cc1 [ST 817, Oxo-3 hydroxyéthyl-2 di(paradimétnylaminophényl)-5-6 as triazine] the LD50 [1] was over 1000 mg/kg, the ED50 [3] was 1.5 mg/kg and the Insoluble dans [2] was “les bases diluées aqueuses, l'eau, le benzène et l'éther”. The Soluble dans [2] was “les acides dilués, les alcools, le chlorure de méthylène et le chloroforme”.

In the case of CCOC(=O)C(C(=O)OCC)n1nc(-c2ccc(OC)cc2)c(-c2ccc(OC)cc2)nc1=O [ST 824, Oxo-3 diéthylmalonyl-2 di(paraméthoxyphényl)-5-6 as triazine], the LD50 [1] is reported as over 1000 mg/kg, the Insoluble dans [2] is reported as “l'eau, les bases et les acides dilués et l'éther” and the Soluble dans [2] is reported as “les alcools, le benzène, le chlorure de méthylène et le chloroforme”.

In the case of C=CCNCCCn1nc(-c2ccc(OC)cc2)c(-c2ccc(OC)cc2)nc1=O [ST 876, Oxalatede l'oxo-3 γallylamino propyl-2 di(paraméthoxyphényl)-5-6 as triazine], the LD50 [1] is reported as 750 mg/kg, the Insoluble dans [2] is reported as “le benzène, l'éther et le chloroforme” and the Soluble dans [2] is reported as “l'eau, les alcools, et le chlorure de méthylène”.

For COc1ccc(-c2nc(=O)n(CCCN3CCN(C)CC3)nc2-c2ccc(OC)cc2)cc1 [ST 881, Dichlorhydratede l'oxo-3 N méthyl piperazinyl-3' propyl-2 di(paraméthoxyphényl)-5-6 as triazine], the LD50 [1] was over 1000 mg/kg, the ED50 [3] was 6.7 mg/kg and the Insoluble dans [2] was “le benzène, le chlorure de méthylène et le chloroforme”. For the same compound, the Soluble dans [2] was “l'eau, les acides dilués et les alcools”.

With CN(C)c1ccc(-c2nc(=O)n(CCCCl)nc2-c2ccc(N(C)C)cc2)cc1 [ST 882, Oxo-3 γ-chloropropyl-2 di(paradiméthyiaminophényl) 5-6 as triazine] the LD50 [1] was over 1000 mg/kg, the ED50 [3] was 4.6 mg/kg and the Insoluble dans [2] was “l'eau et les bases diluées, et l'éther”. For the same compound, the Soluble dans [2] was “les acides dilués aqueux, les alcools, le benzène, le chlorure de méthylène et le chloroforme”.

In the case of CN(C)c1ccc(-c2nc(=O)n(CCOC(=O)c3cccnc3)nc2-c2ccc(N(C)C)cc2)cc1 [ST 883, Oxo-3 nicotinoyloxyéthyl-2 di(paradiméthylaminophényl) 5-6 as triazine], the LD50 [1] is reported as over 1000 mg/kg, the ED50 [3] is reported as 3.1 mg/kg and the Insoluble dans [2] is reported as “l'eau et les bases diluées, l'éther”. The Soluble dans [2] was “les acides dilués, les alcools, le benzène, le chloroforme et le chlorure de méthylène”.

With CN(C)c1ccc(-c2nc(=O)n(CC(O)CO)nc2-c2ccc(N(C)C)cc2)cc1 (stereo not shown) [ST 886] the LD50 [1] was over 1000 mg/kg, the ED50 [3] was 5.6 mg/kg and the Insoluble dans [2] was “l'eau et les bases diluées, l'éther”. For the same compound, the Soluble dans [2] was “les acides dilués aqueux, les alcools, le benzène, le chlorure de méthylène et le chloroforme”.

With COc1ccc(-c2nc(=O)n(CCCCl)nc2-c2ccc(OC)cc2)cc1 [ST 938, Oxo-3 chloropropyl-2 di(paraméthoxyphényl)-5-6 as triazine] the LD50 [1] was at least 1000 mg/kg, the “Propriétés antiagrégantes (in vitro)” value [4] was “le plus actif” and the Insoluble dans [2] was “l'eau, les bases et les acides dilués et l'éther”. For the same compound, the Soluble dans [2] was “les alcools, le benzène, le chlorure de méthylène et le chloroforme”.
